Reference: PMC9218946, “Identification of a Subtype-Selective Allosteric Inhibitor of GluN1/GluN3 NMDA Receptors” (Frontiers in Pharmacology, 2022)

Experiments:
Assay type in all cases: cell-based
GluN1/GluN2A = molecular target: T1, GluN1/GluN2A (Homo sapiens, UniProt Q05586+Q12879); test: GluN1/GluN2A currents (data analyzed from Figure 3D, TEVC in Xenopus oocytes); conditions: 30 μM WZB117
T1 construct: expressed in transfected cells; host or cells: Xenopus oocytes
Method: (§1) Two-electrode voltage-clamp (TEVC) recordings were performed on Xenopus oocytes expressing various subtypes of recombinant NMDARs. Each oocyte was injected with a mixture of 0.5–1.0 ng cDNAs or cRNAs encoding wild-type (WT) or mutant GluN1 (GluN1-1a or GluN1-4a) and GluN2 (2A-2D) or GluN3 (3A-3B) at a ratio of 1:1. The mutant GluN1-4a ^F484A/T518L was injected together with GluN3B to boost the currents of GluN1/GluN3B receptors, and WT GluN1-1a was used unless otherwise stated. The cRNAs of GluN1-4a, GluN3A and GluN3B were transcribed from corresponding DNAs using the mMESSAGE mMACHINE T7 Ultra kit (Life Technologies) according to the manufacturer’s instructions, and the others not specified were cDNAs. TEVC recording was performed 24–72 h post injection in extracellular solution containing (in mM): 100 NaCl, 0.3 BaCl2, 2.5 KCl, 0.01 DTPA and 5 HEPES, and the pH was adjusted to 7.3 using NaOH. All recordings were carried out at a holding potential of −60 mV.
Supplementary Figure S3 Effects of WZB117 on currents from HEK-293 cells co-expressing GluN1/GluN2A/GluN3A subunits. GluN1/GluN2A/GluN3A receptors were expressed on HEK-293 cells at a ratio of GluN1-EGFP: GluN2A: GluN3A = 1:1:2. The GluN1/GluN2A/GluN3A receptors were stimulated by 100 μM glutamate and 100 μM glycine. The data of GluN1/GluN2A were analyzed from Figure 3D. […]

[1] = tested on: GluN1/GluN2 (2A-2D) receptors; test: TEVC recording in Xenopus oocytes expressing GluN1/GluN2 (2A-2D); conditions: 30 μM WZB117; 100 μM glycine and 100 μM glutamate coapplied
Method: as §1

[2] = tested on: GluN1/GluN3A with mutations W671A and L673A of the GluN3A subunit; test: Whole-cell patch-clamp on transiently transfected CHO cells, GluN3A pre-M1 alanine mutants
Method: (§2) To establish GluN1/GluN3A stable cell lines, the human GluN1-1a (GenBank: NP_015566.1) and the rat GluN3A (GenBank: NP_612555.1) genes were subcloned into the pcDNA5-FRT-To and pcDNA3.1 vectors, respectively. An EGFP tag was added to the C-terminus of GluN1 or GluN3A using a T2A linker for identification of transfected cells during transient transfection. Point mutations were introduced by site-directed mutagenesis using PrimeSTAR (Takara). The human GluN2A (GenBank: NP_000824.1) gene was subcloned into the pcDNA3.1 vector. The chimeras GluN3A^670-673 MWPL/LEPF and GluN2A^550-553 LEPF/MWPL were generated using In-Fusion HD Cloning kits (Takara). All constructs were confirmed by DNA sequencing (Beijing Genomics Institute).
(§3) The Flp-in T-Rex 293 cell lines (Invitrogen), stably expressing GluN1/GluN3A were grown in DMEM basal medium (Gibco) supplemented with 10% fetal bovine serum (FBS, Invitrogen), 15 μg/ml blasticidin S (Invitrogen), 50 μg/ml hygromycin B (Invitrogen) and 500 μg/ml G418 (Gibco). Expression in cell lines was induced with 1 μg/ml doxycycline (Invitrogen) 24–28 h prior to the experiments. Chinese hamster ovary (CHO) cells were grown in DMEM-F12 basal medium (Gibco) supplemented with 10% FBS. In the study on the action sites of WZB117, all whole-cell patch-clamp recordings were performed on CHO cells. […]

[3] = molecular target: T2, chimera GluN1/GluN2A^550-553 LEPF/MWPL (Homo sapiens, UniProt Q05586+Q12879, E551W/F553L/L550M); test: Whole-cell patch-clamp on transiently transfected CHO cells, GluN2A chimera
T2 construct: expressed in transfected cells; host or cells: CHO, transient
T2 sequence (Q12879 23-1464 L550M/E551W/F553L, other chains not shown): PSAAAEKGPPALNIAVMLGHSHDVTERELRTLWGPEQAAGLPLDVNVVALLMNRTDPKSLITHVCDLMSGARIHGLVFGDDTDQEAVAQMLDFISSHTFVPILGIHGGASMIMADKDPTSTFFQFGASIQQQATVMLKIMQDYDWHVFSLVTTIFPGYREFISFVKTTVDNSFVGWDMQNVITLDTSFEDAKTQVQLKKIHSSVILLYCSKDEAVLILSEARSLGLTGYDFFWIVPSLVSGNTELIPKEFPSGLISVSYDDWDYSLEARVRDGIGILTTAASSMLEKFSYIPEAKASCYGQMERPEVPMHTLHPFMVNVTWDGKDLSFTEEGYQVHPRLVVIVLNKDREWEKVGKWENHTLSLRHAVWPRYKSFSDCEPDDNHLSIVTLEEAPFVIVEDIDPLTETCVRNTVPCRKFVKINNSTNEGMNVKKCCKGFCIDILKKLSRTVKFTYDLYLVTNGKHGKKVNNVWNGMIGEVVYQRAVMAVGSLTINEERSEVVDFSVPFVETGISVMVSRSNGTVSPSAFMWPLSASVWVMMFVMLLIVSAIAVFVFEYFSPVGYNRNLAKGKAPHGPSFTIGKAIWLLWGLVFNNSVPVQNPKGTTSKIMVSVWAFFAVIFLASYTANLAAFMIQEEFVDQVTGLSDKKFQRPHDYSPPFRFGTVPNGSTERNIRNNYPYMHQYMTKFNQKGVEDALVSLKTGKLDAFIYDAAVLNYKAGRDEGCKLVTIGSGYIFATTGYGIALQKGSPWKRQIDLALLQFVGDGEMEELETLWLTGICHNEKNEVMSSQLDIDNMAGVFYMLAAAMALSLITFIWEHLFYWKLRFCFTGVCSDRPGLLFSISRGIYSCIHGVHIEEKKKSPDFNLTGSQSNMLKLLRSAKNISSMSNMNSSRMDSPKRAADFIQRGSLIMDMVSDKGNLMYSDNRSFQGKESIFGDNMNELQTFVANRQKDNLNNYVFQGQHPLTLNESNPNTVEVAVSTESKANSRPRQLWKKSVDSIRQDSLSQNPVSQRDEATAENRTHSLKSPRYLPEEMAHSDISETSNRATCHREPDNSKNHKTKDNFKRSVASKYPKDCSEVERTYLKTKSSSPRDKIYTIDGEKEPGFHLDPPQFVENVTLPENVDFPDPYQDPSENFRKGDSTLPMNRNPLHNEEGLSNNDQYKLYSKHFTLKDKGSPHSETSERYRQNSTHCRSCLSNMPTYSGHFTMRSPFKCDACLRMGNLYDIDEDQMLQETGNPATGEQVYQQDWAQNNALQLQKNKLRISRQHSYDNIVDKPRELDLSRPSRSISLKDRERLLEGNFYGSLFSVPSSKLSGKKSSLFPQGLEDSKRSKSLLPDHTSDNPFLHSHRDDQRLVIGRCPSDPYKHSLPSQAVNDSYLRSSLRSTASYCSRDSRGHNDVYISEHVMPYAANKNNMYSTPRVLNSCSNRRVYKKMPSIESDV
Method: as §2, §3

T1 sequence (Q12879 23-1464, other chains not shown): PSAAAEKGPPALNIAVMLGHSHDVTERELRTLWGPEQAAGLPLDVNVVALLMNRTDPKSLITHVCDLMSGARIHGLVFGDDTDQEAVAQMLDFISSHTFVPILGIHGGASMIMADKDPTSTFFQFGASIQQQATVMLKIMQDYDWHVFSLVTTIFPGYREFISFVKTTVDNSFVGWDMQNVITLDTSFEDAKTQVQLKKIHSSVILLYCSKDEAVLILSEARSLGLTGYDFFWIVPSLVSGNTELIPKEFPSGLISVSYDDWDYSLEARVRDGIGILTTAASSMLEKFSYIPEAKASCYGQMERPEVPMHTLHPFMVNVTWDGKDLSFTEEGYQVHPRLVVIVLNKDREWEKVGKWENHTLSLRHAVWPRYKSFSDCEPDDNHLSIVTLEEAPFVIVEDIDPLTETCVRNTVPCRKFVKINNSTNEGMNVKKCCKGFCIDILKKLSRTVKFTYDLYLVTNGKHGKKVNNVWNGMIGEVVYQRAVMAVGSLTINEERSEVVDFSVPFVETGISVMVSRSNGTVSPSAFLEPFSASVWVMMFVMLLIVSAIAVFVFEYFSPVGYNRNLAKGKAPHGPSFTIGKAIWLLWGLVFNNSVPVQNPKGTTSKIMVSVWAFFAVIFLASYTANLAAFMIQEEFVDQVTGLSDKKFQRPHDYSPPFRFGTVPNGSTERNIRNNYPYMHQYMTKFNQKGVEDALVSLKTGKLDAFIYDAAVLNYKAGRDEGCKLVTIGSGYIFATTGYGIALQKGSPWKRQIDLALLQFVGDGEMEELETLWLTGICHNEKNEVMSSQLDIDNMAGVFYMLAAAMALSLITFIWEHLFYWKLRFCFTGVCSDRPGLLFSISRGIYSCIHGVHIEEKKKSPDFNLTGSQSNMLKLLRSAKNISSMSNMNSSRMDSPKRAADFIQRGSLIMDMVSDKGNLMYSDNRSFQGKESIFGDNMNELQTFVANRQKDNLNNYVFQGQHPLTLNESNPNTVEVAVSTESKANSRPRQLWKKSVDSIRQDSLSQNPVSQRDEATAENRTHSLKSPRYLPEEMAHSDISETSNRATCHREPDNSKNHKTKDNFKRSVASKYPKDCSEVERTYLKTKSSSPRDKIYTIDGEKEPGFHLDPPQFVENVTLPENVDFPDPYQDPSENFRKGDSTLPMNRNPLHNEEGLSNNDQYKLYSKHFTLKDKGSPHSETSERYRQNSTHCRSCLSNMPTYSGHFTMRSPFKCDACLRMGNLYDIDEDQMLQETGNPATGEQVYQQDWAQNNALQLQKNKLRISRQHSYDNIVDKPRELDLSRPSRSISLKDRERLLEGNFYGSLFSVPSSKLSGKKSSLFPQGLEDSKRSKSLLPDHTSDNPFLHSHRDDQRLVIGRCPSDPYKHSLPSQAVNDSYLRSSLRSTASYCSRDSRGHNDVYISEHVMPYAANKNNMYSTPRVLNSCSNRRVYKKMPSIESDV

For O=C(Oc1cccc(F)c1OC(=O)c1cccc(O)c1)c1cccc(O)c1 [WZB117, 3-fluoro-1,2-phenylene bis(3-hydroxybenzoate)], the “I drug/I cotrol” value (GluN1/GluN2A) was 0.84 ± 0.01, the inhibition of currents [1] was “relatively weak inhibition” and the “influence of mutations on inhibitory effect” value [2] was “significantly influenced the inhibitory effect”. For the same compound, the sensitivity of chimera [3] was “acquired higher sensitivity”.
